Measurements taken from patent publication US7071206B2, “Agents for treating neurodegenerative disorders” (Medivation, Inc., priority 1995, dated 2006).
Where “and” joins values, the source holds several entries; their conditions need not be identical. Equal entries are not always repeated.

Test system: patients suffering from Alzheimer's disease
Assay: Clinical trial of dimebon tablets, inventors' scale (E. E. Bukatina et al.; 0 = absence of a symptom, 4 = greatest manifestation)
Assay type: in vivo, human
Settings: for Degree of irritability, M +/− m: mean of 7 patients having this symptom; for Values of cognitive functions, M +/− m: mean of 7 patients with unprofound dementia; for Marked depressive manifestation, M +/− m: mean of 8 patients with evident depression prior to treatment; for Intensity of headache, M +/− m: mean of 10 patients having this symptom; for number of patients with abatement or complete cessation of headaches / share of patients with abatement or complete cessation of headaches: of 10 patients
Protocol: The test was carried out under the direct supervision by two of the inventors, namely E. E. Bukatina and V. Grigorieva, in 14 patients who agreed to take part in the tests, 13 of whom lived in a boarding house for senile persons and one patient lived with their family.
Alzheimer's disease was diagnosed on the basis of criteria ICD-10 NINCDS ADRDA.
Dimebon in the form of tablets (comprising 10 mg of dimebon, 30 mg of lactose, 5 mg of magnesium stearate was prescribed for oral administration in a dose of 0.02 g three to times a day. The patients living in the boarding house received dimebon for 58 days. A patient (observation 14) who was under outpatient observation continued taking the agent for a month after the completion of the tests.
Before the treatment with dimebon, and at 4 and 8 weeks after treatment the patients were examined according to Hazegawa's scale and the inventors' scale (“Social and Clinical Psychiatry”, 1992, No.4, pp.29–37) which includes the following indexes: (1) orientation in locality, time, immediate surroundings and one's own personality; (2) orientation in space; (3) memory for the past; (4) memory for the present; (5) “life in the past”; (6) (a) articulation, (b) difficulty in finding words, and distortion of words; (c) naming of objects; (d) following instructions; (7) concentration (of attention); (8) an affective sphere; (a) high spirits, (b) low spirits; (9) delirium; (10) hearing hallucinations; (11) visual hallucinations; (12) senile or senile-like confusion (when motion anxiety is accompanied by the revival of the past experience); (13) irritability; (14) anxiety; (15) asthenia; (16) headaches; (17) dizziness; (18) tearfulness; (19) spontaneous activity; (20) elementary self-service; and (21 control of sphincters.
According to the Hazegawa's scale, the 0 score indicates the poorest result; on the contrary, according to the inventors' scale, the 0 score indicates the absence of a symptom 4 score indicates the greatest manifestation thereof. […] Before the therapy was started, the patients had been independently examined by two doctors who used the inventors' scale. The examination during the treatment was carried out by the doctors using both the scales. The evaluation according to all the inventors' scale points during all the tests and their variations during the treatment with dimebon are given in the Appendix.
According to the inventors' scale, the degree of the disturbance if the cognitive functions was determined by a sum of evaluations according to the first 5 scale points reflecting the condition of memory, orientation and relation with the reality. The disturbance of speech was dealt with separately and was determined by a sum of evaluations according to items 6b-6d.
Both absolute evaluations of the signs under investigation (the evaluation prior to treatment is a mean evaluation of the two examinations) and variations in them were analysed in the course of therapy. In doing so, only those changes that were beyond the range of evaluations obtained in two pre-treatment examinations were taken into consideration.
The test results reflected the condition of the patients at the time of the examination. Any changes in the metal state observed in the interval between the tests and disappearing by the moment of examination according to the scale were described in the section “Clinical Observations”.
The statistical data processing was carried out by means of Student's t-test and Fisher's “Fi” criterion.

[1] = change at 8 weeks vs K1, K2, per patient, listed as dimebon
[2] = marked (by more than 1 score), 8 weeks
[3] = mean of 14 patients, after 4 weeks
[4] = mean of 14 patients, after 8 weeks
[5] = of 11 patients with depressive symptoms prior to treatment, 4 weeks

Cc1ccc2c(c1)c1c(n2CCc2ccc(C)nc2)CCN(C)C1 [No. 10, 2,8-dimethyl-5-[2-(6-methyl-3-pyridyl)ethyl]-2,3,4,5-tetrahydro-1H-pyrido[4,3-b]indole]
2. Orientation in space, Changes (8 weeks) [1]: +1 and +0.5
4. Memory for the present, Changes (8 weeks) [1]: −0.5 (2×) and +1 and +0.5 (4×)
5. Life in the past, Changes (8 weeks) [1]: +0.5 (4×) and +1 (2×)
6b. Difficulty in finding words, Changes (8 weeks) [1]: 0 and −0.5
6c. Naming of objects, Changes (8 weeks) [1]: +0.5 (3×) and +1
7. Concentration, Changes (8 weeks) [1]: −0.5 (2×) and +0.5
8b. Lower spirits, Changes (8 weeks) [1]: +1.5 and +1 (3×) and +2 and −1 and +0.5 and −5
9. Delirium, Changes (8 weeks) [1]: +1.5 and 0 (2×) and +2
13. Irritability, Changes (8 weeks) [1]: +1.5 and +1 (2×) and −1.5 and 0
14. Anxiety, Changes (8 weeks) [1]: +0.5 and +1 and −0.5
16. Headache, Changes (8 weeks) [1]: +0.5 and +2 and +1.5 and −1
17. Dizziness, Changes (8 weeks) [1]: 1 and −2 (2×) and +1 (2×) and −0.5
18. Tearfulness, Changes (8 weeks) [1]: +1 and +2
19. Spontaneous activity, Changes (8 weeks) [1]: +1 and 0 (3×) and −1
20. Elementary self-service, Changes (8 weeks) [1]: +1 and −1
6d. Performing instructions, Changes (8 weeks) [1]: −1.5 and −1 (2×) and +0.5 and +1 (2×) and 0
aggravation or emergence of irritability (during treatment): Not a single observation
first emergence of delirium (during treatment): not a single case
Speech functions (items 6b, c, d): deteriorations, % [2]: 2.4%
Speech functions (items 6b, c, d): deteriorations, abs. [2]: 1
Degree of irritability, M +/− m (after 4 weeks): 0.43 +/− 0.28 scores
Degree of irritability, M +/− m (after 8 weeks): 0.29 +/− 5.17 scores
Variations of cognitive function, M +/− m (mean of 7 patients with unprofound (mild) dementia, 4 weeks, listed as Demibon): +0.5 +/− 0.14 score
Variations of cognitive function, M +/− m (mean of 7 patients with unprofound (mild) dementia, 4 weeks, listed as dimebon): 0.5±0.14 score
Variations of cognitive function, M +/− m (mean of 7 patients with unprofound (mild) dementia, 8 weeks): +1.79 +/− 0.35 score
Values of cognitive functions, M +/− m (after 4 weeks): 5.5 +/− 0.79 score
Values of cognitive functions, M +/− m (after 8 weeks): 3.93 +/− 0.5 score
Marked depressive manifestation, M +/− m (after 4 weeks): 0.69 +/− 0.23 scores
Marked depressive manifestation, M +/− m (after 8 weeks): 0.69 +/− 0.18 scores
Intensity of headache, M +/− m (after 4 weeks): 0.45 +/− 0.29 scores
Intensity of headache, M +/− m (after 8 weeks): 0.9 +/− 0.31 scores
Variations of cognitive function, M +/− m (mean of 14 patients, 4 weeks): −0.43 +/− 0.15 score
Variations of speech function, M +/− m (mean of 14 patients, 4 weeks): −0.18 +/− 0.14
Variations of cognitive function, M +/− m (mean of 14 patients, 8 weeks): +1.14 +/− 0.26 score
Variations of speech function, M +/− m (mean of 14 patients, 8 weeks): −0.04 +/− 0.22
Evaluation of speech function, M +/− m [3]: 1.61 +/− 0.44 scores
Values of cognitive function (sum of first 5 scale points), M +/− m [3]: 8.32 +/− 0.93 score
Evaluation of speech function, M +/− m [4]: 1.39 +/− 0.47 scores
Values of cognitive function (sum of first 5 scale points), M +/− m [4]: 7.21 +/− 0.82 score
Cognitive functions (first 5 scale points): improvements, % (moderate (by 1 score), 4 weeks): 5.7%
Cognitive functions (first 5 scale points): improvements, abs. (moderate (by 1 score), 4 weeks): 4
Speech functions (items 6b, c, d): deteriorations, % (moderate (by 1 score), 4 weeks): 2.4%
Speech functions (items 6b, c, d): deteriorations, abs. (moderate (by 1 score), 4 weeks): 1
Speech functions (items 6b, c, d): improvements, % (moderate (by 1 score), 4 weeks): 7.14%
Speech functions (items 6b, c, d): improvements, abs. (moderate (by 1 score), 4 weeks): 3
Cognitive functions (first 5 scale points): improvements, % (moderate (by 1 score), 8 weeks): 8.6%
Cognitive functions (first 5 scale points): improvements, abs. (moderate (by 1 score), 8 weeks): 6
Speech functions (items 6b, c, d): deteriorations, % (moderate (by 1 score), 8 weeks): 4.8%
Speech functions (items 6b, c, d): deteriorations, abs. (moderate (by 1 score), 8 weeks): 2
Speech functions (items 6b, c, d): improvements, % (moderate (by 1 score), 8 weeks): 7.1%
Speech functions (items 6b, c, d): improvements, abs. (moderate (by 1 score), 8 weeks): 3
number of patients showing no signs of tearfulness (of 5 patients with tearfulness prior to treatment, after four weeks): 4 patients
number of patients with abatement or complete cessation of headaches (after 4 weeks): Five
share of patients with abatement or complete cessation of headaches (after 4 weeks): 50%
number of patients with abatement or complete cessation of headaches (after 8 weeks): 3 patients
share of patients with abatement or complete cessation of headaches (after 8 weeks): 30%
number of patients in whom the depression abated [5]: 5 patients
share of patients in whom the depression abated [5]: 45%
number of patients with improvement of depression (of 11 patients with depressive symptoms prior to treatment, 8 weeks): 6 patients
